Experimental data reported in article PMC6854577, “Quantitation of Thyroid Hormone Binding to Anti-Thyroxine Antibody Fab Fragment by Native Mass Spectrometry” (ACS Omega, 2019).
Values joined by “and” are separate entries in the source; they are usually repeats but may differ in a detail not shown here. Identical values can stand only once.

Legend:
anti-T4 Fab = system: anti-T4 Fab; parameters: method as in PMID 9095353, PMID 9460543; settings: SPR, cited from earlier work
[1] = molecular target: anti-T4 antibody Fab fragment; test: Native MS initial ligand screening (approximate affinities, stoichiometry); format: binding, mouse; settings: 0.1 μM Fab; for approximate binding affinity: initial ligand screening
Method: (§1) All mass spectrometric experiments were performed by using a 12-T Bruker solariX XR Fourier transform ion cyclotron resonance (FT-ICR) instrument (Bruker Daltonics, Bremen, Germany) equipped with an electrospray ionization (ESI) source (Apollo-II). Mass spectra were obtained in a positive ion mode, and the samples were directly infused to the ion source at a flow rate of 2 μL min^–1. Dry nitrogen was used as nebulizing (4.0 L min^–1) and drying (80 °C, 1.0 bar) gas. The ions were accumulated in the hexapole ion trap for 3.5 s and then transferred to the dynamically harmonized ICR cell (Paracell) for trapping, excitation, and detection. The time of flight was set to 3.5 ms. All other instrumental parameters were carefully adjusted to preserve noncovalent interactions in the gas phase. […] The mass spectra were externally calibrated by the ESI Tuning mix (part no. G2431A; Agilent Technologies, Santa Clara, CA). The mass spectra were acquired from m/z 1500 to 5000. The data acquisition was attained by ftmsControl 2.1 software and further processed and analyzed by DataAnalysis 4.2 SR1 software. All native MS experiments were performed in 20 mM aqueous ammonium acetate (pH 6.9) solution.
First, the approximate binding affinities of thyroid hormones and tetrahalogen bisphenols to anti-T4 Fab were determined via initial screening experiments (Figures S1–S7).

[2] = molecular target: anti-T4 antibody Fab fragment; test: Native MS (ESI FT-ICR) direct ligand titration; format: binding, mouse; settings: 0.005-2.0 μM T2, 0.1 μM Fab
Method: All mass spectrometric experiments were performed by using a 12-T Bruker solariX XR Fourier transform ion cyclotron resonance (FT-ICR) instrument (Bruker Daltonics, Bremen, Germany) equipped with an electrospray ionization (ESI) source (Apollo-II). Mass spectra were obtained in a positive ion mode, and the samples were directly infused to the ion source at a flow rate of 2 μL min^–1. Dry nitrogen was used as nebulizing (4.0 L min^–1) and drying (80 °C, 1.0 bar) gas. The ions were accumulated in the hexapole ion trap for 3.5 s and then transferred to the dynamically harmonized ICR cell (Paracell) for trapping, excitation, and detection. The time of flight was set to 3.5 ms. […] The data acquisition was attained by ftmsControl 2.1 software and further processed and analyzed by DataAnalysis 4.2 SR1 software. […]
A direct ligand titration[9],[22],[23] was used to determine the binding constant for the “low-affinity” reference ligand. […] The fractional saturation (Y) of the protein was calculated from the intensity ratio of the protein–ligand complex (PL) and free protein (P) for every single ligand (L) concentration (intensities averaged over different charge states), and the data were fitted into the specific, single-site binding model[24] […] Five replicate samples were prepared and measured for each T2 concentration. […]

[3] = molecular target: anti-T4 antibody Fab fragment; test: Native MS (ESI FT-ICR) ligand competition with T2 as low-affinity reference ligand; format: binding, mouse; settings: for binding affinity (in words): native MS
Method: as §1, with “All native MS experiments were performed in 20 mM aqueous ammonium acetate (pH 6.9) solution.” left out
To determine the binding affinities for the other ligands, ligand competition experiments were performed.[25],[26] Briefly, T2 was used as the “low-affinity” reference ligand, whose accurate Kd value was determined earlier by the direct ligand titration. The two ligands, competing for the same binding site in anti-T4 Fab, were mixed at the appropriate concentrations (determined earlier by initial screening experiments) with the protein at a fixed concentration of 0.1 μM. Ten replicates were measured for each ligand pair from three different samples.
A mathematical model to calculate Kd values from the competition experiments was as follows: For L and Lref, competing for a single binding site in P, the two equilibrium reactions are [drawing 2] [drawing 3] where P is the receptor protein, L is the ligand, and Lref is the “low-affinity” reference ligand. Briefly, the intensity ratio (R) of the total abundance of the ligand-bound protein (PL) and free protein (P) was calculated for each spectrum. The affinity measurement for the “low-affinity” ligand (Lref) was performed by a direct titration method. The individual Kd values for L and Lref are derived as [drawing 4] 2 [drawing 5] 3 where the brackets represent equilibrium concentrations of L, Lref, P, PL, and PLref. The mass balance equations at equilibrium are [drawing 6] 4 [drawing 7] 5 [drawing 8] 6 where [P]total, [L]total, and [Lref]total are the total protein, ligand, and reference ligand concentrations, respectively.
At equilibrium, [P] is the same for both ligands, and thus, eqs. […] were simplified to [drawing 9] 7
The ESI-MS spectrum directly provides normalized intensities (“concentration coefficients”) i(P), i(PL), and i(PLref), such that their sum equals 1, which can then be used to calculate equilibrium concentrations by eqs 8, 9, and 10: [drawing 10] 8 [drawing 11] 9 [drawing 12] 10 These calculations are valid if one assumes that the ionization and ion transmission efficiencies for P, PL, and PLref are the same (they are if mL ≈ mLref ≪ mP, which is true in this case), and there is no complex dissociation upon ionization/desolvation stages (i.e., careful adjustments of instrumental parameters). The intensities should be calculated as integrated sums of different charge states to avoid any bias resulting from different CSDs between the free and bound proteins. The free ligand concentrations, [L] and [Lref], can be obtained from eqs 5 and 6. The equilibrium concentrations [L], [Lref], [PL], and [PLref] as well as the predetermined/known Kd(Lref) can be inserted into eq 7 to calculate Kd(L).

THRα1 = molecular target: THRα1; parameters: method as in PMID 15466465; settings: cited from earlier work
[4] = 0.1 μM Fab, 20 mM ammonium acetate pH 6.8, ligand and reference ligand (T2) concentrations per Table 1, mean ± SD, 10 replicates of three samples, read-out: Kd
[5] = T4/T2 0.14/0.5 μM, T3/T2 0.14/0.5 μM, T0/T2 15/0.05 μM, 0.1 μM Fab, read-out: Kd (self-validation at second ligand concentrations)

| Structure (SMILES) | Kd [3, 4] [µM] | Kd [3, 5] [µM] | approximate binding affinity [1] | binding affinity (in words) ([3]; anti-T4 Fab) | further results |
| --- | --- | --- | --- | --- | --- |
| N[C@@H](Cc1ccc(Oc2ccc(O)c(I)c2)c(I)c1)C(=O)O [T2, 3,3′-diiodo-L-thyronine] | – | – | submicrometer range | – | binding (anti-T4 Fab; within the Kd range accessible by the technique): did not show any binding; Kd ([2]; 20 mM ammonium acetate pH 6.8): 260 nM; Kd ([2]; 20 mM ammonium acetate pH 6.8, one-site binding fit, five replicates): 263 nM and 260 nM |
| CC(C)(c1cc(I)c(O)c(I)c1)c1cc(I)c(O)c(I)c1 [TIB, tetraiodobisphenol-A] | 0.011 | – | submicromolar to micromolar affinity range | nanomolar binding affinities | – |
| CC(C)(c1cc(Cl)c(O)c(Cl)c1)c1cc(Cl)c(O)c(Cl)c1 [TCB, tetrachlorobisphenol-A] | 7.8 | – | submicromolar to micromolar affinity range | – | ligand saturation ([1]; ligand added until saturation): saturative binding was not observed even at a molar ligand excess of 200 |

Continued, in another order:

| Kd [3, 4] [µM] | Kd [3, 5] [µM] | Structure (SMILES) | approximate binding affinity [1] | binding affinity (in words) ([3]; anti-T4 Fab) | further results |
| --- | --- | --- | --- | --- | --- |
| 130 | 174 | N[C@@H](Cc1ccc(Oc2ccc(O)cc2)cc1)C(=O)O [T0, L-thyronine] | submicromolar to micromolar affinity range | – | binding affinity relative to T3 ([3]; anti-T4 Fab, native MS Kd values compared): approximately five orders of magnitude lower; Kd ([3]; competition with T2 as reference ligand, as given in the abstract, read-out: Kd): 130 µM |
| 0.029 | 0.0239 | N[C@@H](Cc1cc(I)c(Oc2cc(I)c(O)c(I)c2)c(I)c1)C(=O)O [T4, L-thyroxine] | low nanomolar binding affinities | – | Kd (THRα1): 2 nM; affinity relative to T3 (anti-T4 Fab): approximately 10 times |
| 0.087 | – | CC(C)(c1cc(Br)c(O)c(Br)c1)c1cc(Br)c(O)c(Br)c1 [TBB, tetrabromobisphenol-A] | submicromolar to micromolar affinity range | nanomolar binding affinities | – |
